molecular target: T1, Sirt6 (Homo sapiens, UniProt Q8N6T7); test: Measurement of Sirt6 Activity (CycLex Sirt6 Deacetylase Fluorometric Assay Kit); format: biochemical; details: compound at 10 μM; fluorescence relative to the group without compound treatment (positive control group)
T1 construct: purchased CycLex CY-1156V2
Procedure, shortened: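 Recombinant Sirt6 with fluoro-labelled acetyl-lysine peptide, NAD and lysylendopeptidase developer, compound added from 10× stock in PBS; 1 h at room temperature. Fluorescence read at ex 490/em 530 nm; activation expressed as fluorescence ratio relative to enzyme without compound.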

T1 sequence (Q8N6T7 whole entry): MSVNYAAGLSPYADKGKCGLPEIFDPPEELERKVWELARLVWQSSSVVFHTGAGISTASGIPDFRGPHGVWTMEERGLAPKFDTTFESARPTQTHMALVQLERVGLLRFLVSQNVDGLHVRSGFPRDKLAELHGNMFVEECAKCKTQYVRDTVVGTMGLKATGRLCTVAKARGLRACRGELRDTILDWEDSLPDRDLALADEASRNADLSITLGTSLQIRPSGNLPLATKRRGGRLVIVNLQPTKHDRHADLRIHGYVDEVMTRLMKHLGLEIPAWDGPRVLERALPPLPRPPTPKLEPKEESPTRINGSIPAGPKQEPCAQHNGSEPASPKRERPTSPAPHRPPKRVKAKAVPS

Sirt6 Activity (% activity, 10 μM) [% activity]	SMILES
99.5	Cl.NC1CCCCN(c2nn(C3CCC3)c(=O)c3ccccc23)C1 (stereo not shown) [Example 172, 4-(3-Aminoazepan-1-yl)-2-cyclobutyl phthalazin-1(2H)-one-hydrochloride]
117	CCS(=O)(=O)Nc1cccc(-c2nn(-c3cccc(F)c3)c(=O)c3ccccc23)c1 [Example 30, N-(3-(3-(3-Fluorophenyl)-4-oxo-3,4-dihydrophthalazin-1-yl)phenyl)ethanesulfonamide]
332.60	O=c1c2ccccc2c(N2CCCCC(O)C2)nn1-c1ccc(F)cc1F (stereo not shown) [Example 190, 2-(2,4-Difluorophenyl)-4-(3-hydroxyazepan-1-yl)phthalazin-1(2H)-one]
230.9	Cl.N[C@H]1CCCCN(c2nn(C3CCCCC3)c(=O)c3ccccc23)C1 [Example 155, (S)-4-(3-Aminoazepan-1-yl)-2-cyclohexyl phthalazin-1(2H)-one-hydrochloride]
114.9	CCS(=O)(=O)Nc1cccc(-c2cn(-c3ccc(F)cc3)c(=O)c3ccncc23)c1 [Example 149, N-(3-(2-(4-Fluorophenyl)-1-oxo-1,2-dihydropyrido[3,4-d]pyridin-4-yl)phenyl)ethanesulfonamide]
160	CCCS(=O)(=O)Nc1cccc(-c2nn(-c3ccc(F)cc3)c(=O)c3ccccc23)c1 [Example 68, N-(3-(3-(4-Fluorophenyl)-4-oxo-3,4-dihydrophthalazin-1-yl)phenyl)propan-1-sulfonamide]
153	CN(C)S(=O)(=O)c1cccc(-c2nn(-c3ccccc3F)c(=O)c3ccccc23)c1 [Example 101, 3-(3-(2-Fluorophenyl)-4-oxo-3,4-dihydrophthalazin-1-yl)-N,N-dimethylbenzene Sulfonamide]
164.7	Cl.N[C@H]1CCCCN(c2nn(-c3ccc(F)cc3)c(=O)c3ccccc23)C1 [Example 158, (S)-4-(3-Aminoazepan-1-yl)-2-(4-fluorophenyl)phthalazin-1(2H)-one-hydrochloride]
273.80	Cl.N[C@@H]1CCCCN(c2nn(-c3ccc(Cl)cc3)c(=O)c3ccccc23)C1 [Example 185, (R)-4-(3-Aminoazepan-1-yl)-2-(4-chlorophenyl)phthalazin-1(2H)-one-hydrochloride]
244.30	CC(C)NC(=O)C(C)(C)c1cccc(-c2nn(-c3ccc(F)cc3F)c(=O)c3ccccc23)c1 [Example 176, 2-(3-(3-(2,4-Difluorophenyl)-4-oxo-3,4-dihydrophthalazin-1-yl)phenyl)-N-isopropyl-2-methylpropanamide]
112.58	CCS(=O)(=O)NC1CCN(c2nn(-c3ccc(F)cc3)c(=O)c3ccccc23)C1 (stereo not shown) [Example 137, N-(1-(3-(4-Fluorophenyl)-4-oxo-3,4-dihydrophthalazin-1-yl)pyrrolidin-3-yl)ethanesulfonamide]
135	CCS(=O)(=O)N(C)c1cccc(-c2nn(-c3ccc(F)cc3)c(=O)c3ccccc23)c1 [Example 70, N-(3-(3-(4-Fluorophenyl)-4-oxo-3,4-dihydrophthalazin-1-yl)phenyl)-N-methylethane Sulfonamide]
150	O=c1c2ccccc2c(-c2cccc(NS(=O)(=O)C3CC3)c2)nn1-c1ccc(F)cc1 [Example 71, N-(3-(3-(4-Fluorophenyl)-4-oxo-3,4-dihydrophthalazin-1-yl)phenyl)cyclopropane Sulfonamide]
208	CCNS(=O)(=O)c1cccc(-c2nn(-c3ccc(F)cc3F)c(=O)c3ccccc23)c1 [Example 92, 3-(3-(2,4-Difluorophenyl)-4-oxo-3,4-dihydrophthalazin-1-yl)-N-ethylbenzene Sulfonamide]
133.30	CC(C)(C(=O)NC1CCCCC1)c1cccc(-c2nn(-c3ccc(F)cc3F)c(=O)c3ccccc23)c1 [Example 180, N-Cyclohexyl-2-(3-(3-(2,4-difluorophenyl)-4-oxo-3,4-dihydrophthalazin-1-yl)phenyl)-2-methylpropanamide]
284	CC(C)(C)/[N+]([O-])=C/c1cccc(-c2nn(-c3c(F)cccc3F)c(=O)c3ccccc23)c1 [Example 104, (Z)—N-tert-Butyl-1-(3-(3-(2,6-difluorophenyl)-4-oxo-3,4-dihydrophthalazin-1-yl)phenyl)methanimine Oxide]

Reference: US20220235011A1, “PHTHALAZINONE COMPOUNDS AND USE THEREOF” (ST PHARM CO., LTD., priority 2019, published 2022)
